# Test results: patent publication US20180303817A1, “THERAPEUTIC AGENT FOR BREAST CANCER” (Eisai R&D Management Co., Ltd., priority 2015, published 2018)
# Columns and labels:
# [1] = system: human-derived breast cancer cell line MFM223; test: Anti-tumor effect of compound A in nude mice with subcutaneously transplanted human breast cancer cell line MFM223 (tumor volume); format: in vivo, nude mice (BALB/cAJcl-nu/nu, female)
# Description: (§1) Four nude mice (BALB/cAJcl-nu/nu, female, CLEA Japan, Inc.) per group were used to evaluate an anti-tumor effect when compound A was administered.
# A human-derived breast cancer cell line MFM223 (ECACC) was subjected to preparatory conditioning. The MFM223 cells were suspended at a concentration of 2×10^8 cells/mL in HBSS (Wako Pure Chemical Industries, Ltd.). To the resulting suspension was added an equal volume of Matrigel™ matrix (Becton, Dickinson and Company, Japan), and the mixture was mixed sufficiently. Then, 0.1 mL of the mixture was subcutaneously transplanted into the right flank of each nude mouse (CAnN.Cg-Foxnlnu/Crlalj, female, Charles River Laboratories International, Inc.). During rearing, β-estradiol (Wako Pure Chemical Industries, Ltd.) prepared at a final concentration of 2.5 μg/mL in drinking water was orally administered. 46 Days after the transplantation, a tumor formed was resected and cut into small pieces. HBSS containing Type I collagenase (SIGMA) at a final concentration of 380 units/mL and Deoxyribonuclease I (SIGMA) at a final concentration of 160 K units/mL was added thereto, and the mixture was stirred at 37° C. After the mixture was made to pass through a 100-μm cell strainer (Falcon®) and centrifuged to collect the cells, those cells were cultured in 10% bovine serum-containing EMEM culture medium.
# The cells as so obtained were suspended at a concentration of 1.4×10^8 cells/mL in 10% bovine serum-containing EMEM culture medium (Wako Pure Chemical Industries, Ltd.). To the resulting suspension was added an equal volume of Matrigel™ matrix (Becton, Dickinson and Company, Japan), and the resulting mixture was mixed sufficiently. Next, 0.1 mL of the mixture was subcutaneously transplanted into the right flank of each mouse, and then, the anti-tumor effect was evaluated.
# 20 Days after the transplantation, an electronic digital caliper (Digimatic™ Caliper; Mitutoyo Corporation) was used to measure the long and short diameters of a tumor of interest. The mice were grouped such that each group had substantially the same average of the tumor volumes. Note that each tumor volume was calculated by using the following equation:
# Tumor Volume (mm^3)=Long Diameter (mm)×Short Diameter (mm)×Short Diameter (mm)/2.
# (§2) Compound A as obtained in Production Example 1 was dissolved at a concentration of 0.625 mg/mL, or 2.5 mg/mL in purified water.
# (§3) Then, the solution was orally administered at a dose of 20 mL/kg, i.e., 12.5 mg/kg or 50 mg/kg, once a day for 12 days to the mice of each group. Purified water was administered at 20 mL/kg to the control group.
# (§4) On day 3, 7, and 12 after initiation of the administration, the tumor volume of each mouse was measured. In addition, Table 2 and FIG. 2 show changes in body weight over time.
# [2] = Changes in body weight over time in MFM223 tumor-bearing nude mice; format: in vivo, nude mice (BALB/cAJcl-nu/nu, female)
# Description: as §1, §2, §3, §4
# [3] = 12.5 mg/kg orally once a day, Day 3
# [4] = 12.5 mg/kg orally once a day, Day 7
# [5] = 12.5 mg/kg orally once a day, Day 12
# [6] = 50 mg/kg orally once a day, Day 3
# [7] = 50 mg/kg orally once a day, Day 7
# [8] = 50 mg/kg orally once a day, Day 12
smiles,measurement,setting,value
"CNC(=O)n1ccc2cc(Oc3ccnc(NC(=O)c4ccc(C5CCN(CCO)CC5)cc4)c3)c(OCCOC)cc21 [Compound A, 5-((2-(4-(1-(2-hydroxyethyl)piperidin-4-yl)benzamide)pyridin-4-yl)oxy)-6-(2-methoxyethoxy)-N-methyl-1H-indole-1-carboxamide 1.5 succinate]",Changes in tumor volume over time,"[1]; 12.5 mg/kg orally once a day, Day 0 (at grouping, before treatment effect)",151.6 mm^3
same,Changes in tumor volume over time,[1]; [3],139.0 mm^3
same,Changes in tumor volume over time,[1]; [4],143.8 mm^3
same,Changes in tumor volume over time,[1]; [5],148.2 mm^3
same,Changes in tumor volume over time,"[1]; 50 mg/kg orally once a day, Day 0 (at grouping, before treatment effect)",151.6 mm^3
same,Changes in tumor volume over time,[1]; [6],112.8 mm^3
same,Changes in tumor volume over time,[1]; [7],99.3 mm^3
same,Changes in tumor volume over time,[1]; [8],87.2 mm^3
same,Changes in body weight over time,"[2]; 12.5 mg/kg orally once a day, Day 0",21.1 g
same,Changes in body weight over time,[2]; [3],21.4 g
same,Changes in body weight over time,[2]; [4],22.6 g
same,Changes in body weight over time,[2]; [5],23.2 g
same,Changes in body weight over time,"[2]; 50 mg/kg orally once a day, Day 0",21.5 g
same,Changes in body weight over time,[2]; [6],22.8 g
same,Changes in body weight over time,[2]; [7],23.8 g
same,Changes in body weight over time,[2]; [8],24.0 g
